Source: paper PMC5228037, “Discovery and Mechanistic Characterization of Selective Inhibitors of H2S-producing Enzyme: 3-Mercaptopyruvate Sulfurtransferase (3MST) Targeting Active-site Cysteine Persulfide” (Scientific Reports, 2017)

Tests used:
[1] = Reactivity test toward 3MP and DTT (2nd screening, no enzyme); details: 50 μM 3MP, 40 μM DTT, no 3MST, mean±S.D. n = 4
Method: Reactivity of the hit compounds toward 3MP and DTT was examined. The final concentration of the compounds was 10 or 50 μM. The assay protocol was as follows: compounds were diluted with HSip-1 solution to 20 or 100 μM solution (10% DMSO) with a Multi-Drop Combi. Next, 3MP and DTT solution (10 μL, final concentrations: 50 μM 3MP and 40 μM DTT) was dispensed into the plates (total volume was 20 μL, 5% DMSO), and the plates were incubated at room temperature for 3 hr. The fluorescence of HSip-1 was measured (λex = 485 nm, λem = 520 nm) with a microplate reader (PHERAstar PLUS). Background control wells (i.e., no addition wells instead of addition of 3MP and DTT, n = 16) were also prepared for all plates.
Supplementary Note 3. […]
The second screening, which is a non-enzymatic assay, was performed to eliminate false-positive hit compounds such as naphthoquinone that react with the substrates, e.g., 3MP and DTT. Even in […]
μM 3MP and 40 μM DTT. The fluorescence increase in the presence or the absence of 3MP and DTT was regarded as 100% or 0% fluorescence signal, respectively, and we evaluated the ability of each compound (10 μM and 50 μM) to inhibit the fluorescence increase caused by the reaction with 3MP and DTT. In this assay, we selected compounds showing ‒25% ≤ inhibitory activity at both 10 and 50 μM ≤ 50% (545 compounds). Then, we further selected compounds showing more than 60% inhibitory activity in the previous confirmation test among 545 compounds (146 hit compounds) (Supplementary Fig. S7). These compounds were considered not to react with 3MP and DTT, at least in this concentration range. […]

[2] = biological target: T1, recombinant purified m3MST (Mus musculus, UniProt Q99J99); assay: Inhibitory activity toward purified m3MST by gas chromatography; assay type: biochemical; details: 10 μM compound; 50 μM 3MP, 40 μM DTT; room temperature 3 hr; mean±S.D. n = 2; read-out: Inhibitory activity toward recombinant purified m3MST (H2S production by gas chromatography)
T1 construct: made in house; host or cells: E. coli BL21
T1 sequence (Q99J99 1-297): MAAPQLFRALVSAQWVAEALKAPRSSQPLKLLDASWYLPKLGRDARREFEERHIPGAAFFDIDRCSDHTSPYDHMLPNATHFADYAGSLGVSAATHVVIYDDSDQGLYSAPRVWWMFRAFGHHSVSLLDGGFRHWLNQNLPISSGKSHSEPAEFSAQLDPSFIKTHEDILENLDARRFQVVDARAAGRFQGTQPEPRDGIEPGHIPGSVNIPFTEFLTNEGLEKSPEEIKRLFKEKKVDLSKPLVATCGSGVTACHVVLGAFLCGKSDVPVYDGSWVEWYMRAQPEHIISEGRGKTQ
Method: 1 μL of 1 mM compound (final 10 μM) was diluted with 89 μL of 3MST solution (final 3.8 μg/mL) or GST solution (2.2 μg/mL) in 30 mM HEPES buffer (pH 7.4) in a 30 mL collection vial (Iwaki). 10 μL of 3MP and DTT solution (final concentration: 50 μM 3MP and 40 μM DTT) was added to 90 μL of the mixture, then the vial was sealed with parafilm and incubated at room temperature for 3 hr. After addition of 200 μL of 1 M sodium citrate buffer (pH 6.0), the mixture was incubated at 37 °C for at least 10 minutes with shaking on rotary shaker to quench the enzymatic activity and facilitate release of H2S gas from the aqueous phase. A 2 mL sample of head-space gas (total, approximately 29.5 mL) was applied to a gas chromatograph (ODSA-P2, Alpha M.O.S. Japan). The concentrations of H2S were determined from a standard curve obtained with 0 to 4 nmol of Na2S, which is a source of H2S. The protocol is illustrated in Supplementary Fig. 9.
Compound Inhibitory activity
All data are presented as the mean±S.D. (n = 2).
Supplementary Figure S9. (a) Schematic illustration of 3MST inhibitor assay by gas chromatography. (b) Inhibitory activity toward recombinant purified m3MST. Conditions: Mixtures of 10 μM test compound, 3.8 μg/mL 3MST or 2.2 μg/mL GST, 50 μM 3MP, 40 μM DTT, and 1% (v/v) DMSO in 30 mM HEPES buffer (pH 7.4) were incubated at room temperature for 3 hr.
(1 picture or pasted object on this page, not shown here)

SMILES	No Enzyme: inhibition of HSip-1 fluorescence increase caused by 3MP and DTT ([1]; 10 μM compound)	No Enzyme: inhibition of HSip-1 fluorescence increase caused by 3MP and DTT ([1]; 50 μM compound)	inhibition at 10 µM [2]
NC(=O)c1ccsc1NC(=O)CSc1nc2ccccc2c(=O)[nH]1 [compound 1]	10.1±6.2%	17.2±4.0%	104 ± 2.7%
Cc1sc2nc(SCC(=O)c3ccc(O)cc3O)[nH]c(=O)c2c1C [compound 2]	7.4±10.6%	-23.6±17.1%	93.4 ± 0.8%
Cc1cc(=O)[nH]c(SCC(=O)c2cccc3ccccc23)n1 [compound 3]	7.4±5.5%	6.3±4.5%	90.3 ± 12%
O=C(O)c1cccc(NS(=O)(=O)c2ccccc2)c1 [compound 5]	11.4±4.9%	10.5±4.5%	90.9 ± 0.9%
